Source: publication PMC10587872, “Virtual Screening-Accelerated Discovery of a Phosphodiesterase 9 Inhibitor with Neuroprotective Effects in the Kainate Toxicity In Vitro Model” (ACS Chemical Neuroscience, 2023)

Target: T1, PDE9 (PDE9A) (Homo sapiens, UniProt O76083)
T1 construct: full-length recombinant human PDE9
Assay: PDE-Glo phosphodiesterase luminescence assay with cGMP substrate, recombinant human PDE9A
Type: biochemical

T1 sequence (O76083 whole entry): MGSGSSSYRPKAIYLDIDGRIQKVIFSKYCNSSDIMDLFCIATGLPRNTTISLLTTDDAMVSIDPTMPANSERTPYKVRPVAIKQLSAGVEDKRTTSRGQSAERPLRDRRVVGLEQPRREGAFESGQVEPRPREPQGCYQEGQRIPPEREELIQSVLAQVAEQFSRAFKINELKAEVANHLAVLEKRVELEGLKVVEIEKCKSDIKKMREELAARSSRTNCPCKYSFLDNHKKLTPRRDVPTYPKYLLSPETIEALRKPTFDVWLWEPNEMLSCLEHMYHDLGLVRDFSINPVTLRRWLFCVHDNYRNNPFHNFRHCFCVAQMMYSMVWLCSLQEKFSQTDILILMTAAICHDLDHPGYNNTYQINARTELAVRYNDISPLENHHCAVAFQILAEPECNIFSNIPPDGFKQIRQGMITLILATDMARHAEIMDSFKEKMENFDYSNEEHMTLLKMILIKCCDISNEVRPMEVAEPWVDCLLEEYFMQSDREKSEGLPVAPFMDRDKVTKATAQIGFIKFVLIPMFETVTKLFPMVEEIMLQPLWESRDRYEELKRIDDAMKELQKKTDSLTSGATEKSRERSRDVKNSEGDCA

IC50: 5.35 nM
Compound: CC(C)=CCc1c2c(c3occ(-c4ccc(OS(C)(=O)=O)c(OS(C)(=O)=O)c4)c(=O)c3c1O)C=CC(C)(C)O2 [DB987]
